Measurements from ChEMBL document CHEMBL3885881, “DrugMatrix”.

Species: Rattus norvegicus
Experiment: DrugMatrix - Regimen: Daily Repeat
Assay type: toxicity, organism-based, Sprague-Dawley
Parameters: regimen Daily Repeat, gender Male, age 6-8 weeks
Conditions: in vivo, po, route oral GAVAGE, vehicle .5 % CMC; for ABSOLUTE BASOPHIL / ABSOLUTE EOSINOPHIL / ABSOLUTE LYMPHOCYTE / ABSOLUTE MONOCYTE / ABSOLUTE SEGMENTED NEUTROPHIL / BASOPHIL / EOSINOPHIL / ERYTHROCYTE COUNT / HEMATOCRIT / HEMOGLOBIN / LEUKOCYTE COUNT / LYMPHOCYTE / MEAN CORPUSCULAR HEMOGLOBIN / MEAN CORPUSCULAR HEMOGLOBIN CONCENTRATION / MEAN CORPUSCULAR VOLUME / MONOCYTE / NEUTROPHIL / NUCLEATED RED BLOOD CELLS / PLATELET COUNT: tissue Blood; for ALANINE AMINOTRANSFERASE / ALBUMIN / ALKALINE PHOSPHATASE / ASPARTATE AMINOTRANSFERASE / BLOOD UREA NITROGEN / CARBON DIOXIDE / CHLORIDE / CHOLESTEROL / CREATINE PHOSPHOKINASE / CREATININE / GLUCOSE / LACTATE DEHYDROGENASE / LIPASE / PHOSPHORUS / POTASSIUM / SODIUM / TOTAL BILIRUBIN / TOTAL PROTEIN / URIC ACID: tissue Plasma
[1] = 0 mg/kg, 72 h, dose level Control, time 3 day
[2] = 0 mg/kg, 120 h, dose level Control, time 5 day
[3] = 25 mg/kg, 72 h, dose level Low, time 3 day
[4] = 25 mg/kg, 120 h, dose level Low, time 5 day

For `CCCCC1C(=O)N(c2ccccc2)N(c2ccccc2)C1=O` [PHENYLBUTAZONE], the “ABSOLUTE BASOPHIL” value [1] was 0 CELLS/uL, the “ABSOLUTE EOSINOPHIL” value [1] was 35.67 CELLS/uL and the “ABSOLUTE LYMPHOCYTE” value [1] was 9125.17 CELLS/uL. The “ABSOLUTE MONOCYTE” value [1] was 50.17 CELLS/uL, the “ABSOLUTE SEGMENTED NEUTROPHIL” value [1] was 722.33 CELLS/uL and the BASOPHIL [1] was 0%. The EOSINOPHIL [1] was 0.33%, the “ERYTHROCYTE COUNT” value [1] was 5.35 x10E6/uL and the HEMATOCRIT [1] was 33.58%. The HEMOGLOBIN [1] was 13.35 G/DL, the “LEUKOCYTE COUNT” value [1] was 9.93 x10E3/uL and the LYMPHOCYTE [1] was 91.67%. For the same molecule, the “MEAN CORPUSCULAR HEMOGLOBIN” value [1] was 25 pg, the “MEAN CORPUSCULAR HEMOGLOBIN CONCENTRATION” value [1] was 39.8 G/DL and the “MEAN CORPUSCULAR VOLUME” value [1] was 62.77 fL. The MONOCYTE [1] was 0.67%, the NEUTROPHIL [1] was 7.33% and the “NUCLEATED RED BLOOD CELLS” value [1] was 0 /100WBC. The “PLATELET COUNT” value [1] was 866.17 x10E3/uL, the “ALANINE AMINOTRANSFERASE” value [1] was 57.17 u/L and the ALBUMIN [1] was 4.22 G/DL. For the same molecule, the “ALKALINE PHOSPHATASE” value [1] was 391 u/L, the “ASPARTATE AMINOTRANSFERASE” value [1] was 95.17 u/L and the “BLOOD UREA NITROGEN” value [1] was 13.67 mg/dL. The “CARBON DIOXIDE” value [1] was 30 mmol/L, the CHLORIDE [1] was 102.5 MEQ/L and the CHOLESTEROL [1] was 72 mg/dL. For the same molecule, the “CREATINE PHOSPHOKINASE” value [1] was 485.67 u/L, the CREATININE [1] was 0.27 mg/dL and the GLUCOSE [1] was 152 mg/dL. The “LACTATE DEHYDROGENASE” value [1] was 372.67 u/L, the LIPASE [1] was 9.83 u/L and the PHOSPHORUS [1] was 12.47 mg/dL. The POTASSIUM [1] was 6.81 MEQ/L, the SODIUM [1] was 144.1 MEQ/L and the “TOTAL BILIRUBIN” value [1] was 0.23 mg/dL. For the same molecule, the “TOTAL PROTEIN” value [1] was 5.93 G/DL, the “URIC ACID” value [1] was 1.9 mg/dL and the “ABSOLUTE BASOPHIL” value [2] was 0 CELLS/uL. For the same molecule, the “ABSOLUTE EOSINOPHIL” value [2] was 67.33 CELLS/uL, the “ABSOLUTE LYMPHOCYTE” value [2] was 11419.17 CELLS/uL and the “ABSOLUTE MONOCYTE” value [2] was 203.17 CELLS/uL. The “ABSOLUTE SEGMENTED NEUTROPHIL” value [2] was 1327 CELLS/uL, the BASOPHIL [2] was 0% and the EOSINOPHIL [2] was 0.5%. The “ERYTHROCYTE COUNT” value [2] was 5.65 x10E6/uL, the HEMATOCRIT [2] was 35.3% and the HEMOGLOBIN [2] was 13.98 G/DL. The “LEUKOCYTE COUNT” value [2] was 13.02 x10E3/uL, the LYMPHOCYTE [2] was 88% and the “MEAN CORPUSCULAR HEMOGLOBIN” value [2] was 24.78 pg. The “MEAN CORPUSCULAR HEMOGLOBIN CONCENTRATION” value [2] was 39.63 G/DL, the “MEAN CORPUSCULAR VOLUME” value [2] was 62.58 fL and the MONOCYTE [2] was 1.33%. For the same molecule, the NEUTROPHIL [2] was 10.17%, the “NUCLEATED RED BLOOD CELLS” value [2] was 0 /100WBC and the “PLATELET COUNT” value [2] was 1213.83 x10E3/uL. The “ALANINE AMINOTRANSFERASE” value [2] was 49.67 u/L, the ALBUMIN [2] was 4.28 G/DL and the “ALKALINE PHOSPHATASE” value [2] was 362.33 u/L. For the same molecule, the “ASPARTATE AMINOTRANSFERASE” value [2] was 99 u/L, the “BLOOD UREA NITROGEN” value [2] was 20.67 mg/dL and the “CARBON DIOXIDE” value [2] was 26.33 mmol/L. The CHLORIDE [2] was 102 MEQ/L, the CHOLESTEROL [2] was 63.83 mg/dL and the “CREATINE PHOSPHOKINASE” value [2] was 481.83 u/L. For the same molecule, the CREATININE [2] was 0.21 mg/dL, the GLUCOSE [2] was 158 mg/dL and the “LACTATE DEHYDROGENASE” value [2] was 656.33 u/L. The LIPASE [2] was 10.67 u/L, the PHOSPHORUS [2] was 12.27 mg/dL and the POTASSIUM [2] was 6.17 MEQ/L. The SODIUM [2] was 143.35 MEQ/L, the “TOTAL BILIRUBIN” value [2] was 0.17 mg/dL and the “TOTAL PROTEIN” value [2] was 6.13 G/DL. For the same molecule, the “URIC ACID” value [2] was 1.48 mg/dL, the “ABSOLUTE BASOPHIL” value [3] was 0 CELLS/uL and the “ABSOLUTE EOSINOPHIL” value [3] was 0 CELLS/uL. For the same molecule, the “ABSOLUTE LYMPHOCYTE” value [3] was 8397.33 CELLS/uL, the “ABSOLUTE MONOCYTE” value [3] was 56.33 CELLS/uL and the “ABSOLUTE SEGMENTED NEUTROPHIL” value [3] was 846.33 CELLS/uL. The BASOPHIL [3] was 0%, the EOSINOPHIL [3] was 0% and the “ERYTHROCYTE COUNT” value [3] was 5.18 x10E6/uL. For the same molecule, the HEMATOCRIT [3] was 33.27%, the HEMOGLOBIN [3] was 13.33 G/DL and the “LEUKOCYTE COUNT” value [3] was 9.3 x10E3/uL. For the same molecule, the LYMPHOCYTE [3] was 90.67%, the “MEAN CORPUSCULAR HEMOGLOBIN” value [3] was 25.83 pg and the “MEAN CORPUSCULAR HEMOGLOBIN CONCENTRATION” value [3] was 40.17 G/DL. The “MEAN CORPUSCULAR VOLUME” value [3] was 64.37 fL, the MONOCYTE [3] was 0.67% and the NEUTROPHIL [3] was 8.67%. The “NUCLEATED RED BLOOD CELLS” value [3] was 0 /100WBC, the “PLATELET COUNT” value [3] was 982.67 x10E3/uL and the “ALANINE AMINOTRANSFERASE” value [3] was 57 u/L. The ALBUMIN [3] was 4.4 G/DL, the “ALKALINE PHOSPHATASE” value [3] was 377 u/L and the “ASPARTATE AMINOTRANSFERASE” value [3] was 101.33 u/L. The “BLOOD UREA NITROGEN” value [3] was 16.33 mg/dL, the “CARBON DIOXIDE” value [3] was 29.33 mmol/L and the CHLORIDE [3] was 103 MEQ/L. For the same molecule, the CHOLESTEROL [3] was 73 mg/dL, the “CREATINE PHOSPHOKINASE” value [3] was 583.33 u/L and the CREATININE [3] was 0.17 mg/dL. The GLUCOSE [3] was 154.67 mg/dL, the “LACTATE DEHYDROGENASE” value [3] was 337.67 u/L and the LIPASE [3] was 8.67 u/L. The PHOSPHORUS [3] was 12.6 mg/dL, the POTASSIUM [3] was 6.38 MEQ/L and the SODIUM [3] was 143.37 MEQ/L. For the same molecule, the “TOTAL BILIRUBIN” value [3] was 0.13 mg/dL, the “TOTAL PROTEIN” value [3] was 5.87 G/DL and the “URIC ACID” value [3] was 1.67 mg/dL. For the same molecule, the “ABSOLUTE BASOPHIL” value [4] was 0 CELLS/uL, the “ABSOLUTE EOSINOPHIL” value [4] was 72 CELLS/uL and the “ABSOLUTE LYMPHOCYTE” value [4] was 8896 CELLS/uL. For the same molecule, the “ABSOLUTE MONOCYTE” value [4] was 33 CELLS/uL, the “ABSOLUTE SEGMENTED NEUTROPHIL” value [4] was 999 CELLS/uL and the BASOPHIL [4] was 0%. For the same molecule, the EOSINOPHIL [4] was 0.67%, the “ERYTHROCYTE COUNT” value [4] was 5 x10E6/uL and the HEMATOCRIT [4] was 31.63%. The HEMOGLOBIN [4] was 12.6 G/DL, the “LEUKOCYTE COUNT” value [4] was 10 x10E3/uL and the LYMPHOCYTE [4] was 89%. The “MEAN CORPUSCULAR HEMOGLOBIN” value [4] was 25.27 pg, the “MEAN CORPUSCULAR HEMOGLOBIN CONCENTRATION” value [4] was 39.87 G/DL and the “MEAN CORPUSCULAR VOLUME” value [4] was 63.4 fL. The MONOCYTE [4] was 0.33%, the NEUTROPHIL [4] was 10% and the “NUCLEATED RED BLOOD CELLS” value [4] was 0 /100WBC. For the same molecule, the “PLATELET COUNT” value [4] was 635.33 x10E3/uL, the “ALANINE AMINOTRANSFERASE” value [4] was 52 u/L and the ALBUMIN [4] was 4.53 G/DL. The “ALKALINE PHOSPHATASE” value [4] was 362 u/L, the “ASPARTATE AMINOTRANSFERASE” value [4] was 82.33 u/L and the “BLOOD UREA NITROGEN” value [4] was 20 mg/dL. For the same molecule, the “CARBON DIOXIDE” value [4] was 25 mmol/L, the CHLORIDE [4] was 105.67 MEQ/L and the CHOLESTEROL [4] was 71.33 mg/dL. The “CREATINE PHOSPHOKINASE” value [4] was 253 u/L, the CREATININE [4] was 0.26 mg/dL and the GLUCOSE [4] was 148 mg/dL. For the same molecule, the “LACTATE DEHYDROGENASE” value [4] was 409.67 u/L, the LIPASE [4] was 11 u/L and the PHOSPHORUS [4] was 11.9 mg/dL. For the same molecule, the POTASSIUM [4] was 6.52 MEQ/L, the SODIUM [4] was 146.6 MEQ/L and the “TOTAL BILIRUBIN” value [4] was 0.2 mg/dL. The “TOTAL PROTEIN” value [4] was 6.2 G/DL and the “URIC ACID” value [4] was 1.47 mg/dL.
